According to ChEMBL document CHEMBL1201862, “PubChem BioAssay data set” (2004):
Active and inactive are the calls of the source.

How the values were obtained:
Beta-galactosidase = Beta-galactosidase (Escherichia coli, UniProt Q8VNN2); test: PubChem AID 485352; type: functional
[1] = molecular target: T1, Type-1 angiotensin II receptor (Homo sapiens, UniProt P30556); test: AT1 receptor antagonists, dose response, selectivity assay for APJ receptor antagonist project, cell-based, uHTS hits (AID 463214); type: functional;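 note: antagonist potency against angiotensin II stimulated AT1 response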
T1 sequence (P30556 whole entry): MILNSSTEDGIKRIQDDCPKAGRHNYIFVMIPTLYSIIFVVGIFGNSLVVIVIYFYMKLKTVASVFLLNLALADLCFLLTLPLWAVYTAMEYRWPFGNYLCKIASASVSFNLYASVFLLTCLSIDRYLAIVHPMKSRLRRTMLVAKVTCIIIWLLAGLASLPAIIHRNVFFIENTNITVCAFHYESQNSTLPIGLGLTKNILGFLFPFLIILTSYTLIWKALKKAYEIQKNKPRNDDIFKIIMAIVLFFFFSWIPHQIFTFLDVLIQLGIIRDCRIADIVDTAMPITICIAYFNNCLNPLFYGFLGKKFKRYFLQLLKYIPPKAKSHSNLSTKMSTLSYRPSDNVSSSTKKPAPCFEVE

Vero = test: cells; type: functional; conditions: Chlorocebus sabaeus
[2] = molecular target: Peroxisome proliferator-activated receptor gamma/Nuclear receptor coactivator 1 (Homo sapiens, UniProt P37231); test: (§1) TR-FRET dose response biochemical High Throughput Screening assay for agonists of the steroid receptor coactivator 1 (SRC-1) recruitment by the peroxisome proliferator-activated receptor gamma (PPAR gamma): non-selective agonists. [Related pubchem assays (depositor defined):AID1300, AID1808, AID504735, AID631]; type: protein assay
[3] = molecular target: Peroxisome proliferator-activated receptor gamma/Nuclear receptor coactivator 3 (Homo sapiens, UniProt P37231); test: as §1, with “3 (SRC-3)” for “1 (SRC-1)”, “assays: 1301 (Confirmation screen.), 1048 (Primary screen.)]” for “assays (depositor defined):AID1300, AID1808, AID504735, AID631]”; type: functional
[4] = molecular target: Peroxisome proliferator-activated receptor gamma/Nuclear receptor coactivator 2 (Homo sapiens, UniProt P37231); test: TR-FRET dose response biochemical High Throughput Screening assay for agonists of the steroid receptor coactivator 2 (SRC-2) recruitment by the peroxisome proliferator-activated receptor gamma (PPAR gamma): non-selective agonists. [Related pubchem assays: 1297, 1032 ]; type: functional
Sequence of Peroxisome proliferator-activated receptor gamma/Nuclear receptor coactivator 2 (P37231 whole entry): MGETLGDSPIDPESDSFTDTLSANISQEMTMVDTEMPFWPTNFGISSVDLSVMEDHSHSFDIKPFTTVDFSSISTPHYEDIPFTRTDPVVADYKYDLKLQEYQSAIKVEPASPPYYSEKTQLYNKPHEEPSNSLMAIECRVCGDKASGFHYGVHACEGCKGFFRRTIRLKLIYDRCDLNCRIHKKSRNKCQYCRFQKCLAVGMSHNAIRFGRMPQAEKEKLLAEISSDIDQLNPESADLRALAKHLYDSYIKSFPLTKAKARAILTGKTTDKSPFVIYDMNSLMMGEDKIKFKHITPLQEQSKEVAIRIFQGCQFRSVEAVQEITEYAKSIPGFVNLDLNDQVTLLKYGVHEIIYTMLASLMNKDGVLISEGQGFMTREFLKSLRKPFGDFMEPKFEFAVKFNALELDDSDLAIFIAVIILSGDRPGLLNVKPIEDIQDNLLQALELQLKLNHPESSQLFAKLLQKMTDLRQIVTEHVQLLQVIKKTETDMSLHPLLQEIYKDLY
Sequence of Peroxisome proliferator-activated receptor gamma/Nuclear receptor coactivator 2 (Q15596 whole entry, further chain): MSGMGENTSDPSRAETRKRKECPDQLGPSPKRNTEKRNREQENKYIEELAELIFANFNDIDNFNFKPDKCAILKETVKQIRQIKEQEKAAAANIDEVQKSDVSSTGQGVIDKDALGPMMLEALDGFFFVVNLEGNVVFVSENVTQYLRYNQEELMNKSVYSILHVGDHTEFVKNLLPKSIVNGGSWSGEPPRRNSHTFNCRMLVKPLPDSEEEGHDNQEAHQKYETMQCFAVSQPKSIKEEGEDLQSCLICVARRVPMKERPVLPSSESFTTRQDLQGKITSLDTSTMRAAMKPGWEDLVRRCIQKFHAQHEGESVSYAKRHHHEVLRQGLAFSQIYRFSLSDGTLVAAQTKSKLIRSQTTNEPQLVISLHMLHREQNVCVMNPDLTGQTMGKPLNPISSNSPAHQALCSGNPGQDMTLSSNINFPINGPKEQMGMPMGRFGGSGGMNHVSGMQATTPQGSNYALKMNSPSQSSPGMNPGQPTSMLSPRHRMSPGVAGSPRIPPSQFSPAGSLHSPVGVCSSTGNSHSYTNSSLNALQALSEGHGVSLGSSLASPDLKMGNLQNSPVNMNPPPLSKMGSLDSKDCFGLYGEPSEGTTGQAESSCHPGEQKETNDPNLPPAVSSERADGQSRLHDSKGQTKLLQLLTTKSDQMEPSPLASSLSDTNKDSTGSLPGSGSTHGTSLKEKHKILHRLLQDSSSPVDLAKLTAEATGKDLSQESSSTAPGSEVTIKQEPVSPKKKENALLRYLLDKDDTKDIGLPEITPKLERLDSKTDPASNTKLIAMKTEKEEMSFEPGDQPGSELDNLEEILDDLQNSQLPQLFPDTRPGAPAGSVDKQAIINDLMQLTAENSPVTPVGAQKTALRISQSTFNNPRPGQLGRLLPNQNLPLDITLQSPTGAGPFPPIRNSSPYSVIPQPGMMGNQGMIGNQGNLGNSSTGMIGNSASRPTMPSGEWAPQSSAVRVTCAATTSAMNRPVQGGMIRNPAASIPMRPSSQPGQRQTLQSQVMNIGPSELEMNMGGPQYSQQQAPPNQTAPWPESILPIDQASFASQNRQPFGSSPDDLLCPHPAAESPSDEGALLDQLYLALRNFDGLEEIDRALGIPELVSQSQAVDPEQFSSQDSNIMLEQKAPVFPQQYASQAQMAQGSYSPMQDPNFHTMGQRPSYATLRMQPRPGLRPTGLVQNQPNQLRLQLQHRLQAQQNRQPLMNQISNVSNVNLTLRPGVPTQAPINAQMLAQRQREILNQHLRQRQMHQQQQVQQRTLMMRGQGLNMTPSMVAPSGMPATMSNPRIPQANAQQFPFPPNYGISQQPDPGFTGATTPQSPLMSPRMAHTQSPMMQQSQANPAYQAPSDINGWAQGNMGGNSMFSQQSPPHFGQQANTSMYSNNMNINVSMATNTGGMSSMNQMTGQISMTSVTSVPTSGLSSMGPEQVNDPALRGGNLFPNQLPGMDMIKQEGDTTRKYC

HEK293 [5] = test: NOD1 signaling inhibitors, primary screen, cell-based, luminescence, uHTS (AID 1578); type: functional; conditions: Homo sapiens
HEK293 [6] = test: cells; type: functional, cell-based; conditions: Homo sapiens
HEK293 [7] = test: cells; type: functional, cell-based; conditions: Homo sapiens; remark: listed apart in the source
HEK293 [8] = test: NOD2 signaling inhibitors in MDP-stimulated cells, cell-based, uHTS, luminescence (AID 2001); type: functional; conditions: Homo sapiens
BJ [9] = test: cytotoxicity toward BJ-TERT fibroblasts, dose response, cell-based, RAS-independent, luminescence (AID 1933); type: functional; conditions: Homo sapiens
BJ [10] = test: cells; type: functional, cell-based; conditions: Homo sapiens
BJ [11] = test: cytotoxicity toward BJ-TERT-LT-ST fibroblasts, dose response, cell-based, RAS-independent, luminescence (AID 1935); type: functional; conditions: Homo sapiens;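 note: BJ fibroblasts immortalized with TERT plus LT and ST oncogenes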
[12] = cytotoxicity toward DRD oncogenic fibroblasts, dose response, cell-based, non-viral oncogenic, luminescence (AID 1934); type: functional; conditions: Homo sapiens
[13] = molecular target: Heat shock protein HSP 90-alpha (Homo sapiens, UniProt P07900); type: functional, organism-based
BJ [14] = test: cytotoxicity toward Ras-transformed BJeLR fibroblasts, dose response, cell-based, alamar blue fluorescence, cherrypicked samples (AID 2631); type: functional; conditions: Homo sapiens;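 note: confirmatory dose-response assay in RAS-dependent BJ fibroblasts engineered with TERT, LT and ST, with cytotoxicity read by fluorescence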
INS1 = test: beta cell apoptosis inhibitors, cytokine rescue, dose response, luminescence, retest (AID 449756); type: functional, cell-based; conditions: Rattus norvegicus;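 note: cell death triggered by IL-1 beta plus TNF-alpha plus IFN-gamma mixture; protective hits raise ATP signal compared with cytokine alone wells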
[15] = molecular target: 26S proteasome non-ATPase regulatory subunit 14 (Homo sapiens, UniProt O00487); test: inhibition of proteasome subunit RPN11 – biochemical, fluorescence polarization, uHTS hits, confirmation (AID 602368); type: functional
Sequence of 26S proteasome non-ATPase regulatory subunit 14 (O00487 whole entry): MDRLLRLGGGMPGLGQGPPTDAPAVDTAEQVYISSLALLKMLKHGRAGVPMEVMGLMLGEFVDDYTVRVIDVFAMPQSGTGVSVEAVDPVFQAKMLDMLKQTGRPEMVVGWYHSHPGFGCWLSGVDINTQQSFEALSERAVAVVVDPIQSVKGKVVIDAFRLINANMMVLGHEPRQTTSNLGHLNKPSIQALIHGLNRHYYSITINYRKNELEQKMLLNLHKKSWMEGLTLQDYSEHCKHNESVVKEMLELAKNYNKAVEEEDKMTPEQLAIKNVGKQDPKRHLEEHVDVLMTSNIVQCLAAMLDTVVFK

[16] = molecular target: 72 kDa type IV collagenase (Homo sapiens, UniProt P08253); test: Dose Response validation of uHTS RPN11 inhibitor hits using a MMP-2 Fluorescence assay.; type: functional
Sequence of 72 kDa type IV collagenase (P08253 whole entry): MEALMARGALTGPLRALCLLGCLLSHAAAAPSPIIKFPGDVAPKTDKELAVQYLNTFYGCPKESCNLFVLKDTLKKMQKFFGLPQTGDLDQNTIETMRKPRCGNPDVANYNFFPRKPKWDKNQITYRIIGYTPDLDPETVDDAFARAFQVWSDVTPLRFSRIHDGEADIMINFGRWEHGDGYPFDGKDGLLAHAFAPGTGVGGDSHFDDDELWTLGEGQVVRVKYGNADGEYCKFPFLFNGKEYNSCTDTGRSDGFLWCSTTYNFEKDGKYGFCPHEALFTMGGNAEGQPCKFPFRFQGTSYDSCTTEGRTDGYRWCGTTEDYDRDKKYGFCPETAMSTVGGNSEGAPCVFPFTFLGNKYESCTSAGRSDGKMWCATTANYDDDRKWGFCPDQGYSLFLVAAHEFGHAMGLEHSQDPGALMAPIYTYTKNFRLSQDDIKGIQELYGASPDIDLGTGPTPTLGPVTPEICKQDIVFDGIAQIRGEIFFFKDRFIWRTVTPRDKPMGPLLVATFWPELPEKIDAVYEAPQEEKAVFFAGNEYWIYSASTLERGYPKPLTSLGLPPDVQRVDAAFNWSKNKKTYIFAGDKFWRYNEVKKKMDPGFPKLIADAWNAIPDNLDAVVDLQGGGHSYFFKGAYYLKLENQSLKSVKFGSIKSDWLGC

Prothrombin = Prothrombin (Bos taurus, UniProt P00735); test: thrombin inhibition, dose response, biochemical, fluorescence polarization, uHTS hits (AID 602369); type: functional
[17] = molecular target: DNA dC->dU-editing enzyme APOBEC-3A (Homo sapiens, UniProt P31941); test: APOBEC3A DNA deaminase inhibitors, dose response, biochemical (AID 504722); type: functional
Sequence of DNA dC->dU-editing enzyme APOBEC-3A (P31941 whole entry): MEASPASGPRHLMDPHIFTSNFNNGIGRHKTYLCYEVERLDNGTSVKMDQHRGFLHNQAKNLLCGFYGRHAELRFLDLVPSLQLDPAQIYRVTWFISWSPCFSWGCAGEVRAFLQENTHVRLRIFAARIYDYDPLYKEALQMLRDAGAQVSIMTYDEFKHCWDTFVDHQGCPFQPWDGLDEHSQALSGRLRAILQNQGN

[18] = molecular target: DNA dC->dU-editing enzyme APOBEC-3G (Homo sapiens, UniProt Q9HC16); test: Dose Response confirmation of small molecule APOBEC3G DNA Deaminase Inhibitors via a fluorescence-based single-stranded DNA deaminase assay. [Related pubchem assays (depositor defined):AID493012, AID493028]; type: functional
Sequence of DNA dC->dU-editing enzyme APOBEC-3G (Q9HC16 whole entry): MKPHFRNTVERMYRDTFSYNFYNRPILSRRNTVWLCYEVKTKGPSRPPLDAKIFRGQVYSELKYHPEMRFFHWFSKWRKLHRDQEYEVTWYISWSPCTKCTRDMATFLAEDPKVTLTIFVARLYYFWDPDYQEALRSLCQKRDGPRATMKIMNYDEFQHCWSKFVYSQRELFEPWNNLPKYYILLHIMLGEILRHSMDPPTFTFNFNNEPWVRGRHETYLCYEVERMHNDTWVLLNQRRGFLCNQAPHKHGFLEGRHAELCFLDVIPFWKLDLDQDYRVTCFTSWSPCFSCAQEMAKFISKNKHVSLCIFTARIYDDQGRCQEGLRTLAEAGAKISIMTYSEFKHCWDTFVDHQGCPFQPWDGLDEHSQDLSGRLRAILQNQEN

[19] = molecular target: G-protein coupled receptor 55 (Homo sapiens, UniProt Q9Y2T6); test: GPR55 agonists via beta-arrestin recruitment, primary screen, imaging, U2OS cells, beta-arrestin-GFP redistribution (AID 1961); type: functional
Sequence of G-protein coupled receptor 55 (Q9Y2T6 whole entry): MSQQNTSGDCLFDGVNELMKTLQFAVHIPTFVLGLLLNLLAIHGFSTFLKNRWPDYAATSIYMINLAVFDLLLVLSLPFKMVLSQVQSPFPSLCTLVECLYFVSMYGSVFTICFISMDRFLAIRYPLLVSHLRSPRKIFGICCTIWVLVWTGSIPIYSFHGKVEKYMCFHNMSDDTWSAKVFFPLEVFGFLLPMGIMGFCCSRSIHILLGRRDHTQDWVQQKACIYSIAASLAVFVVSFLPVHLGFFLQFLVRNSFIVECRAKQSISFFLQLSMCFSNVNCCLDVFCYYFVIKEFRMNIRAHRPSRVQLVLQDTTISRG

Aminopeptidase N = molecular target: T2, Aminopeptidase N (Plasmodium falciparum FcB1/Columbia, UniProt O96935); test: P. falciparum M1AAP inhibitors, biochemical, fluorogenic H-Leu-NHMec substrate, 1536-well (AID 1445); parameters: species or system Plasmodium falciparum 3D7, 3D7
T2 sequence (O96935 whole entry): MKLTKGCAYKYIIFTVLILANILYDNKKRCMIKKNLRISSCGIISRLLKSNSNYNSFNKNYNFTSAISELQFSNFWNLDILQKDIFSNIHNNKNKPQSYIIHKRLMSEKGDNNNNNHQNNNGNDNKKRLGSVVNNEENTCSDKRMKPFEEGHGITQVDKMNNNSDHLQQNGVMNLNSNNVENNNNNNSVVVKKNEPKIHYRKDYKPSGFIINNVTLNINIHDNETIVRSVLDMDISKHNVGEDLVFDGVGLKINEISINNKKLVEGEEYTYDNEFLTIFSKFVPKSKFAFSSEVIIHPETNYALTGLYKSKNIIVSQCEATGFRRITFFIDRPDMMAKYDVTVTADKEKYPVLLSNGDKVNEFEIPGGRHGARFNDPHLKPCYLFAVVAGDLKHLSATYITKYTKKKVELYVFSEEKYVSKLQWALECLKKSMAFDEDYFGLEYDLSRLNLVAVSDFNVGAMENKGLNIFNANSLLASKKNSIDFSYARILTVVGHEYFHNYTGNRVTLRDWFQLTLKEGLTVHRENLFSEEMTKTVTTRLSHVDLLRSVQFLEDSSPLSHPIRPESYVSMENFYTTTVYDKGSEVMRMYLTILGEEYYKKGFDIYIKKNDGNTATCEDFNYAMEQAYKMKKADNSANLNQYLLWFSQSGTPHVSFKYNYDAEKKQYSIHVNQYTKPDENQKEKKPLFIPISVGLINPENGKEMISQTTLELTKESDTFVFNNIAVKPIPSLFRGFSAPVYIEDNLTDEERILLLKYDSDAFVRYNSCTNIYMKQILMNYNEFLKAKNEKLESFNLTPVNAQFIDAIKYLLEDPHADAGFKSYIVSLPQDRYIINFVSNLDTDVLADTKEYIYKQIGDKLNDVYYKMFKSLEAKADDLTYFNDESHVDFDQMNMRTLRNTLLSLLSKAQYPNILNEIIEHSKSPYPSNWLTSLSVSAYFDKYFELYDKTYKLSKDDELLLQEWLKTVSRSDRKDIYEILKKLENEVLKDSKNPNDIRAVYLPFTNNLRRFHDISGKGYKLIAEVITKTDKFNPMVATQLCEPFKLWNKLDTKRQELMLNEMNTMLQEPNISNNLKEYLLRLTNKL

[20] = Luminescence Cell-Based Dose Confirmation HTS to Identify Activators of 5'UTR Stem-Loop Driven Alpha-Synuclein mRNA Translation in H4 Neuroglioblastoma Cells. [Related pubchem assays: 1829 (Project Summary), 1814 (Primary HTS)]; type: functional
[21] = Luminescence Cell-Based Dose Response HTS to Identify Activators of Luciferase Translation or Activity in H4 […] Cells. [Related pubchem assays: 1829 (Project Summary), 1814 (Primary HTS)]; type: functional
H4 = test: Luminescence Cell-Based Dose Response HTS to Identify Activators of 5'UTR Stem-Loop Driven Prion Protein mRNA Translation in H4 Neuroglioblastoma Cells. [Related pubchem assays: 1829 (Project Summary), 1814 (Primary HTS)]; type: functional; conditions: Homo sapiens
SN12K1 = test: cells; type: functional; conditions: Homo sapiens
[22] = microbe, parasite or virus in culture; type: functional; conditions: Mycobacterium tuberculosis
[23] = growth suppression of PTEN-null colon cells, dose response, cell-based, HCT116 PTEN knockout (AID 1047); type: functional;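 note: HCT116 colon tumor cells with PTEN knocked out; cells exposed to compound for 60 hours before readout; potency for loss of cell viability measured by luminescence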
[24] = growth suppression of beta-catenin-knockout colon cells, dose response, cell-based, HCT116, human colon tumor (AID 1045); type: functional;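 note: HCT116 colon tumor cells with beta catenin knocked out; cells exposed to compound for 60 hours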
Cytochrome P450 2C9 = Cytochrome P450 2C9 (Homo sapiens, UniProt P11712)

Sequence of Beta-galactosidase (Q8VNN2 whole entry): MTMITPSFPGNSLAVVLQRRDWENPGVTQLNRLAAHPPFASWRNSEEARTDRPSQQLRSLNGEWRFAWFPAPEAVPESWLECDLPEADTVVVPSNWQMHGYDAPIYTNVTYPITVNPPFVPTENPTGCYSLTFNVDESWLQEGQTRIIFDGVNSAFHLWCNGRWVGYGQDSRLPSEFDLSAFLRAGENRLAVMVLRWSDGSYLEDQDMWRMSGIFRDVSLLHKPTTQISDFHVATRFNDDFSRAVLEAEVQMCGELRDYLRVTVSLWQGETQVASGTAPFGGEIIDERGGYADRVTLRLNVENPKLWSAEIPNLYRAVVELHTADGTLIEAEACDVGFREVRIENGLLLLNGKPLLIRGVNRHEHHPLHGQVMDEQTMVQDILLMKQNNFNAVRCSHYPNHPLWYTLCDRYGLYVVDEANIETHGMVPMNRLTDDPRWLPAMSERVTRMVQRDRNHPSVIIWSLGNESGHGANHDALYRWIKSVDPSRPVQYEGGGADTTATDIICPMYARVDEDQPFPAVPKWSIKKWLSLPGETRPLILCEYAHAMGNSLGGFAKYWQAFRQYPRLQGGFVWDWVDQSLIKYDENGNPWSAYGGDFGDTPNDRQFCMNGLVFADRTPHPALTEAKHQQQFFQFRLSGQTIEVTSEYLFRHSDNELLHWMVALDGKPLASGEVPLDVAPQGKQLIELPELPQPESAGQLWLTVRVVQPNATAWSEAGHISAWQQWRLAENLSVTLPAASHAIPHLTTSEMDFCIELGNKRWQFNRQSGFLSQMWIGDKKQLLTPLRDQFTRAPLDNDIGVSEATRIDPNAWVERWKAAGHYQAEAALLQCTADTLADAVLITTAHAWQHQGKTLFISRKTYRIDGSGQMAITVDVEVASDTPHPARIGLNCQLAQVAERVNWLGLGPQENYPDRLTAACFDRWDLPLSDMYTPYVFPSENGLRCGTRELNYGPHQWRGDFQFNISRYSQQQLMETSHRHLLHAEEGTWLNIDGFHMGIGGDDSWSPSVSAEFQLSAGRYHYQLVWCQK

O=C(OCC(=O)c1ccc(Cl)cc1Cl)c1ccccn1
EC50 (Beta-galactosidase): > 40 µM (inactive) | IC50 [1]: 35.9 µM (not active)

CC1CC(N(C(=O)c2ccc(Cl)cc2)c2ccccc2)c2ccccc2N1C(=O)c1ccco1 (stereo not given)
CC50 (Vero): 15.1 µM (active)

CCn1c(=O)cc(SCC(=O)N2CCN(Cc3ccc4c(c3)OCO4)CC2)c2ccccc21
EC50 [2]: > 79.4 µM (inactive) | EC50 [3]: > 79.4 µM (not active) | EC50 [4]: > 79.4 µM (not active)

COc1ccc(NP(=O)(Oc2ccccc2OC)Oc2ccccc2OC)cc1
EC50 [2]: > 79.4 µM (inactive) | EC50 [3]: > 79.4 µM (not active) | EC50 [4]: > 79.4 µM (not active)

CCOc1ccc(CCNC(=O)CSc2cc(=O)n(C)c3ccccc23)cc1OCC
EC50 [2]: > 79.4 µM (inactive) | EC50 [3]: > 79.4 µM (not active) | EC50 [4]: > 79.4 µM (not active)

CN(C)S(=O)(=O)c1ccc(C(=O)Nc2nc(-c3cc4ccccc4o3)cs2)cc1
EC50 (HEK293 [5]): > 20 µM (inactive) | IC50 (HEK293 [6]): 3.09 µM (active) | IC50 (HEK293 [7]): > 20 µM (inactive) | IC50 (HEK293 [8]): 2.85 µM (active)

Cc1ccc(/N=C/c2c(C)[nH]n(-c3nc4ccccc4[nH]3)c2=O)cc1
EC50 (BJ [9]): 2.84 µM (inconclusive) | EC50 (BJ [10]): 3.03 µM (active) | EC50 (BJ [11]): 3.62 µM (inconclusive) | EC50 [12]: 2.83 µM (active) | AC50 [13]: 5.84 µM (active) | EC50 (BJ [14]): > 133 µM (inactive) | AC50 (INS1): 1.42 µM (active)

CC(NC(=O)C1CCN(C(=O)c2cccs2)CC1)c1ccc(S(N)(=O)=O)cc1 (stereo not given)
IC50 [15]: 9.98 µM (active) | IC50 [16]: > 100 µM (inactive) | IC50 (Prothrombin): > 100 µM (inactive)

C=CCn1c(=O)c2ccccc2n2c(S)nnc12
IC50 [17]: > 100 µM (inactive) | IC50 [18]: 2.61 µM (active)

Cc1ccc(NS(=O)(=O)c2cc([N+](=O)[O-])ccc2N/N=C/c2sc(N3CCOCC3)nc2-c2ccccc2)c(C)c1
EC50 (Beta-galactosidase): > 40 µM (inactive) | IC50 [1]: > 40 µM (not active) | EC50 [19]: < 0.5 µM (active) | AC50 (INS1): 4.62 µM (active)

Cc1cc(C)n2nc(C(=O)NNC(=O)c3ccc(Cl)cc3)nc2n1
IC50 (Aminopeptidase N): 15.9 µM (active) | EC50 [20]: > 120 µM (not active) | EC50 [21]: 12.7 µM (active) | EC50 (H4): > 120 µM (not active)

CN(C)CCCN(C(=O)c1cc(Cl)sc1Cl)c1nc2cc3c(cc2s1)OCO3
EC50 [19]: > 32 µM (inactive)

Cc1cc(-c2nnc(S)n2-c2ccc(C)c(C)c2)no1
IC50 [17]: > 100 µM (inactive) | IC50 [18]: 8.07 µM (active)

c1ccc(CN2CCc3[nH]c4ccccc4c3C2)cc1
GI50 (SN12K1): 15.2 µM (inactive)

CCCCc1cc(=O)oc2c(CN(C)C)c(O)ccc12
IC50 (Aminopeptidase N): 30.2 µM (active)

COc1ccccc1C1C2=C(O)OCC2=Nc2cc3c(cc21)OCO3 (stereo not given)
EC50 (BJ [9]): 6.64 µM (inconclusive) | EC50 (BJ [10]): 15.2 µM (inconclusive) | EC50 (BJ [11]): 9.65 µM (inconclusive) | EC50 [12]: 9.6 µM (inconclusive) | EC50 (BJ [14]): < 0.104 µM (active)

Cc1csc(NC(=O)CSc2nc3sc(C)c(C)c3c(=O)[nH]2)n1
IC50 [15]: 24.3 µM (active) | IC50 [16]: > 100 µM (inactive) | IC50 (Prothrombin): 43.6 µM (active)

Cc1cc(C)c2sc(N(CCN(C)C)C(=O)c3cc(Cl)sc3Cl)nc2c1
EC50 [19]: 26.2 µM (inactive)

COc1cccc(N2[C@@H](CC(C)=O)c3ccc(/C=C/C(C)=O)cc3S2(=O)=O)c1
CC50 (Vero): 17.9 µM (active)

COCCCn1c(=N)c(C(=O)NCC2CCCO2)cc2c(=O)n3ccccc3nc21 (stereo not given)
IC50 (Aminopeptidase N): 60.2 µM (active)

CCc1cc(=O)oc2cc(C)cc(O)c12
EC50 [2]: > 79.4 µM (inactive) | EC50 [3]: > 79.4 µM (not active) | EC50 [4]: 21.1 µM (not active)

Cc1[nH]c(=S)c(C#N)c2c1CCCC2
IC50 [17]: > 100 µM (inactive) | IC50 [18]: 5.25 µM (active)

O=C(CSc1nc2c(c(=O)n1-c1ccc(Cl)cc1)SCC2)NCC1CCCO1 (stereo not given)
IC50 (Aminopeptidase N): 58.3 µM (active)

CCCCC(=O)Nc1sc2c(c1C(=O)OCC)CCC(C=O)=C2Cl
CC50 [22]: > 40 µM (active) | EC50 [23]: 5.83 µM (active) | EC50 [24]: 5.91 µM (active) | EC50 [19]: > 32 µM (inactive) | AC50 (Cytochrome P450 2C9): 7.94 µM (inconclusive)

Cc1ccc(OCC(=O)OCC(=O)c2cccc([N+](=O)[O-])c2)cc1C
EC50 (Beta-galactosidase): > 40 µM (inactive) | IC50 [1]: > 40 µM (not active)
